Experimental data as given in EP0393973A1, “Antitumor Agent Indicated for lung cancer” (priority 1989, dated 1990).

How the values were obtained:
[1] = Observation of gastric mucosa after oral dosing of normal rats; conditions: rat, in vivo
From the text: It was therefore assumed that a massive dose of citral or lemongrass oil which contains citral as its principal constituent would adversely affect normal cells. • (2) Instead of dosing lemongrass oil directly to normal rats, lemongrass oil or citral in β-cyclodextrin clathrates was mixed with feed.

chicken embryos = conditions: cited from earlier work
sarcoma 180 = conditions: oral administration to mice bearing sarcoma 180; cited from earlier work
platelet aggregation = assay: Suppression of platelet aggregation; conditions: substance per se

For CC(C)=CCCC(C)=CC=O [Citral, citral], the “findings on the gastric mucosa” value [1] is listed as “petechiae were observed on the gastric mucosa”, the teratogenicity (chicken embryos) is listed as “teratogenic” and the “growth of cancer cells” value (sarcoma 180) is listed as “suppresses growth of cancer cells”. For the same compound, the platelet aggregation (platelet aggregation) was “strongly suppresses”.
